Measured values as given in US6737383B1, “Herbicidal oxadiazolidines” (priority 1999, dated 2004).

Assays:
[1] = test system: wheat; experiment: Test B pre/postemergence wheat; format: in vivo, Triticum aestivum
Summary of the method: (§1)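 Response is a visual 0-to-10 score relative to untreated plants, where 0 means no effect and 10 means complete control, taken twelve to sixteen days after application. Treatments went onto soil at planting and onto foliage of 1- to 4-leaf plants, using a surfactant-containing non-phytotoxic solvent.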

[2] = test system: rice; experiment: Test B flood test rice; format: in vivo, Oryza sativa
Summary of the method: (§2)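 Read-out is a visual response score from 0 (no effect) to 10 (complete control), assigned by comparison with untreated controls. Treatment was applied at the 2-leaf stage, and plants stayed in the greenhouse for twelve to sixteen days before scoring.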

[3] = test system: surinam grass; experiment: Test B pre/postemergence surinam grass; format: in vivo, Brachiaria decumbens
Summary of the method: as §1

[4] = test system: morningglory; experiment: Test B pre/postemergence morningglory; format: in vivo, Ipomoea hederacea
Summary of the method: as §1

[5] = test system: cocklebur; experiment: Test B pre/postemergence cocklebur; format: in vivo, Xanthium strumarium
Summary of the method: as §1

[6] = test system: purple nutsedge; experiment: Test B pre/postemergence purple nutsedge; format: in vivo, Cyperus rotundus; conditions: Postemergence
Summary of the method: as §1

[7] = test system: bedstraw; experiment: Test B pre/postemergence bedstraw; format: in vivo, Galium aparine
Summary of the method: as §1

[8] = test system: bamyardgrass; experiment: Test B flood test barnyardgrass; format: in vivo, Echinochloa crus-galli
Summary of the method: as §2

[9] = test system: corn; experiment: Test B pre/postemergence corn; format: in vivo, Zea mays
Summary of the method: as §1

[10] = test system: blackgrass; experiment: Test B pre/postemergence blackgrass; format: in vivo, Alopecurus myosuroides
Summary of the method: as §1

[11] = test system: duck salad; experiment: Test B flood test duck salad; format: in vivo, Heteranthera limosa
Summary of the method: as §2

[12] = test system: wild oat; experiment: Test B pre/postemergence wild oat; format: in vivo, Avena fatua
Summary of the method: as §1

[13] = test system: pigweed; experiment: Test B pre/postemergence pigweed; format: in vivo, Amaranthus retroflexus
Summary of the method: as §1

[14] = test system: velvetleaf; experiment: Test B pre/postemergence velvetleaf; format: in vivo, Abutilon theophrasti
Summary of the method: as §1

[15] = test system: rape; experiment: Test B pre/postemergence rape; format: in vivo, Brassica napus
Summary of the method: as §1

[16] = test system: smallflower flatsedge; experiment: Test B flood test smallflower flatsedge; format: in vivo, Cyperus difformis
Summary of the method: as §2

[17] = Preemergence, Rate 62 g/ha, scale of 0 to 10 where 0 is no effect and 10 is complete control
[18] = Preemergence, Rate 250 g/ha, scale of 0 to 10 where 0 is no effect and 10 is complete control
[19] = Preemergence, Rate 500 g/ha, scale of 0 to 10 where 0 is no effect and 10 is complete control
[20] = Rate 62 g/ha, Postemergence, scale of 0 to 10 where 0 is no effect and 10 is complete control
[21] = Rate 125 g/ha, Postemergence, scale 0 to 10
[22] = Rate 125 g/ha, Preemergence, scale of 0 to 10 where 0 is no effect and 10 is complete control
[23] = Rate 500 g/ha, Postemergence, scale 0 to 10, 0 no effect, 10 complete control
[24] = Rate 62 g/ha, headed Pre-emergence (flood test species), scale 0 to 10 (0 no effect, 10 complete control)
[25] = Rate 125 g/ha, Pre-emergence, flood test species, scale 0 to 10 where 0 is no effect and 10 is complete control
[26] = Rate 250 g/ha, Pre-emergence, flood-test species, scale 0 to 10, 0 is no effect, 10 is complete control
[27] = Rate 500 g/ha, Pre-emergence, flood test species, scale 0 to 10 (0 no effect, 10 complete control)

CC(C)N(C(=O)n1oc(=O)n(CCC2OCCO2)c1=O)c1ccc(F)cc1 [Compound 219]
6: Wheat plant response rating [1, 21] | Rice plant response rating [2, 27] | B. signalgrass plant response rating [3, 22] | Morningglory plant response rating [4, 20] | Morningglory plant response rating [4, 21] | Bedstraw plant response rating [7, 20] | Bedstraw plant response rating [7, 21] | Wild oats plant response rating [12, 23] | Velvetleaf plant response rating [14, 22] | Rape plant response rating [15, 18]
7: Plant response rating (0 to 10; 0 is no effect, 10 is complete control), Wheat ([1]; Rate 250 g/ha, Postemergence) | Wheat plant response rating [1, 23] | Plant response rating (0 to 10; 0 is no effect, 10 is complete control), Morningglory ([4]; Rate 250 g/ha, Postemergence) | Morningglory plant response rating [4, 23] | Plant response rating, Corn [9, 19] | Blackgrass plant response rating [10, 17] | Blackgrass plant response rating [10, 21] | Redroot pigweed plant response rating [13, 21] | Velvetleaf plant response rating [14, 18] | Plant response rating (0 to 10; 0 is no effect, 10 is complete control), Rape ([15]; Rate 250 g/ha, Postemergence) | Rape plant response rating [15, 23]
0: Rice plant response rating [2, 24] | Rice plant response rating [2, 25] | Rice plant response rating [2, 26] | B. signalgrass plant response rating [3, 20] | Morningglory plant response rating [4, 17] | Morningglory plant response rating [4, 18] | Morningglory plant response rating [4, 22] | Cocklebur plant response rating [5, 17] | Cocklebur plant response rating [5, 18] | Plant response rating, Cocklebur [5, 19] | Cocklebur plant response rating [5, 22] | Nutsedge plant response rating ([6]; Rate 62 g/ha, scale of 0 to 10 where 0 is no effect and 10 is complete control) | Nutsedge plant response rating ([6]; Rate 125 g/ha, scale 0 to 10) | Plant response rating (0 to 10; 0 is no effect, 10 is complete control), Nutsedge ([6]; Rate 250 g/ha) | Nutsedge plant response rating ([6]; Rate 500 g/ha, scale 0 to 10, 0 no effect, 10 complete control) | Barnyardgrass plant response rating [8, 24] | Barnyardgrass plant response rating [8, 25] | Corn plant response rating [9, 17] | Corn plant response rating [9, 20] | Corn plant response rating [9, 21] | Corn plant response rating [9, 22] | Ducksalad plant response rating [11, 24] | Ducksalad plant response rating [11, 25] | Ducksalad plant response rating [11, 26] | Redroot pigweed plant response rating [13, 17] | Velvetleaf plant response rating [14, 20] | Velvetleaf plant response rating [14, 21] | Rape plant response rating [15, 17] | Rape plant response rating [15, 22] | S. Flatsedge plant response rating [16, 24] | S. Flatsedge plant response rating [16, 25] | S. Flatsedge plant response rating [16, 26]
8: Wheat plant response rating [1, 18] | B. signalgrass plant response rating [3, 23] | Bedstraw plant response rating [7, 18] | Plant response rating (0 to 10; 0 is no effect, 10 is complete control), Bedstraw ([7]; Rate 250 g/ha, Postemergence) | Bedstraw plant response rating [7, 23] | Barnyardgrass plant response rating [8, 26] | Plant response rating (0 to 10; 0 is no effect, 10 is complete control), Blackgrass ([10]; Rate 250 g/ha, Postemergence) | Blackgrass plant response rating [10, 23] | Wild oats plant response rating [12, 18] | Plant response rating (0 to 10; 0 is no effect, 10 is complete control), Redroot pigweed ([13]; Rate 250 g/ha, Postemergence) | Redroot pigweed plant response rating [13, 23]
9: Plant response rating, Wheat [1, 19] | B. signalgrass plant response rating ([3]; Preemergence, Rate 250 g/ha, scale 0 to 10, 0 is no effect, 10 is complete control) | Plant response rating, B. signalgrass [3, 19] | Plant response rating, Bedstraw [7, 19] | Barnyardgrass plant response rating [8, 27] | Plant response rating, Wild oats [12, 19] | Redroot pigweed plant response rating [13, 18]
10: Blackgrass plant response rating [10, 18] | Plant response rating, Blackgrass [10, 19] | Blackgrass plant response rating [10, 22] | Plant response rating, Redroot pigweed [13, 19] | Plant response rating, Velvetleaf [14, 19] | Plant response rating, Rape [15, 19]
3: Wheat plant response rating [1, 17] | Ducksalad plant response rating [11, 27] | Wild oats plant response rating [12, 21] | Velvetleaf plant response rating [14, 17] | Rape plant response rating [15, 21]
1: Plant response rating, Morningglory [4, 19] | Cocklebur plant response rating [5, 20] | Cocklebur plant response rating [5, 21] | Bedstraw plant response rating [7, 17] | Wild oats plant response rating [12, 20]
5: Wheat plant response rating [1, 20] | Wheat plant response rating [1, 22] | Plant response rating (0 to 10; 0 is no effect, 10 is complete control), B. signalgrass ([3]; Rate 250 g/ha, Postemergence) | Bedstraw plant response rating [7, 22] | Corn plant response rating [9, 18] | Corn plant response rating [9, 23] | Blackgrass plant response rating [10, 20] | Wild oats plant response rating [12, 22] | Redroot pigweed plant response rating [13, 20]
4: B. signalgrass plant response rating [3, 17] | Plant response rating (0 to 10; 0 is no effect, 10 is complete control), Cocklebur ([5]; Rate 250 g/ha, Postemergence) | Cocklebur plant response rating [5, 23] | Plant response rating (0 to 10; 0 is no effect, 10 is complete control), Corn ([9]; Rate 250 g/ha, Postemergence) | Plant response rating (0 to 10; 0 is no effect, 10 is complete control), Wild oats ([12]; Rate 250 g/ha, Postemergence) | Redroot pigweed plant response rating [13, 22] | Velvetleaf plant response rating [14, 23] | S. Flatsedge plant response rating [16, 27]
2: B. signalgrass plant response rating ([3]; Rate 125 g/ha, Postemergence, scale 0 (no effect) to 10 (complete control)) | Wild oats plant response rating [12, 17] | Plant response rating (0 to 10; 0 is no effect, 10 is complete control), Velvetleaf ([14]; Rate 250 g/ha, Postemergence) | Rape plant response rating [15, 20]
